According to patent US20070244060A1, “Therapeutic Agent for Autoimmune Disease” (priority 2003, published 2007):

How the values were obtained:
Type in all cases: cell-based, human
[1] = system: osteoarthritis synoviocytes (OA); test: ER stress-inducible apoptosis, ssDNA Apoptosis ELISA, osteoarthritis synoviocytes; conditions: OA synoviocytes (5 cases), 24 hours, FIG. 5
Experimental: (§1) The experiments were carried out as follows. […] Endoplasmic reticulum stress-inducible apoptosis was induced using tunicamycin at concentrations of 10, 30, and 100 μg/mL. Apoptosis was quantitated using the ssDNA Apoptosis ELISA kit from Chemicon International, Inc.

[2] = system: rheumatoid synoviocytes (RA); test: ER stress-inducible apoptosis, ssDNA Apoptosis ELISA, rheumatoid synoviocytes; conditions: RA synoviocytes (5 cases), 24 hours, FIG. 5
Experimental: as §1

synoviocytes = test: Apoptosis induction in synoviocytes, nuclear condensation by Hoechst 33258 DNA staining; conditions: FIG. 3B
Experimental: Then, synoviocytes were seeded at 2500 each to an eight-well Lab-Tek Chamber from the Nunc Company and were incubated for 24 hours in an incubator under 5% CO2 at 37° C. 67 nM siRNA was thereafter introduced into the synoviocytes using TransIT-TKO transfection reagent from the Miru Bio Corporation. After additional incubation for 48 hours in an incubator under 5% CO2 at 37° C., 50 μg/mL tunicamycin was added, followed by incubation for 48 hours under the same conditions. The cells were then fixed and nuclear condensation was confirmed by DNA staining with Hoechst 33258.

rheumatoid synoviocytes = test: WST-8 assay of proliferation activity of rheumatoid synoviocytes after siRNA treatment; conditions: 96 hours after siRNA treatment; anti-GFP siRNA negative control = 100; FIG. 3A
Experimental: The experiments were carried out as follows. Rheumatoid synoviocytes were seeded at 160 each into a 96-well, flat-bottom plate from the Falcon Co. After 24 hours, treatment was carried with anti-Synoviolin siRNA or anti-GFP siRNA, and the proliferation activity was investigated after an additional 96 hours. The GFP was used in this case as a negative control. The degree of cell proliferation was measured using a WST-8 assay from Dojindo Laboratories.

| Substance | apoptosis (ssDNA Apoptosis ELISA) ([1]; tunicamycin 10 μg/mL) | apoptosis (ssDNA Apoptosis ELISA) ([1]; tunicamycin 30 μg/mL) | apoptosis (ssDNA Apoptosis ELISA) ([1]; tunicamycin 100 μg/mL) | apoptosis (ssDNA Apoptosis ELISA) ([2]; tunicamycin 10 μg/mL) | apoptosis (ssDNA Apoptosis ELISA) ([2]; tunicamycin 30 μg/mL) | apoptosis (ssDNA Apoptosis ELISA) ([2]; tunicamycin 100 μg/mL) | apoptosis induction in synoviocytes (synoviocytes; 50 μg/mL tunicamycin, 48 hours) | proliferation activity of rheumatoid synoviocytes (GFP=100) (rheumatoid synoviocytes) | apoptosis induction in synoviocytes, co-use of siRNA with tunicamycin (synoviocytes; 67 nM siRNA 48 hours, then 50 μg/mL tunicamycin 48 hours) |
| --- | --- | --- | --- | --- | --- | --- | --- | --- | --- |
| tunicamycin | 2.18±1.19 | 2.76±1.84 | 3.65±2.53 | 0.73±0.30 | 0.84±0.35 | 0.81±0.28 | caused apoptosis induction | – | – |
| anti-Synoviolin siRNA: small interfering RNA against the Synoviolin gene; sense CGUUCCUGGUACGCCGUCAUU (SEQ ID NO: 1), antisense UGACGGCGUACCAGGAACGUU (SEQ ID NO: 2) (listed as RNA, chemistry not given here) | – | – | – | – | – | – | – | about 60% | increased |
